Assay results reported in article PMC8868586, “Comparison of Various Solvent Extracts and Major Bioactive Components from Unsalt-Fried and Salt-Fried Rhizomes of Anemarrhena asphodeloides for Antioxidant, Anti-α-Glucosidase, and Anti-Acetylcholinesterase Activities” (Antioxidants, 2022).
Where two headings read alike, the source gives them in different places.

Experiments:
[1] = DPPH radical scavenging assay
Description: The DPPH radical scavenging assay was measured by the reference method.
(§1) ABTS and DPPH assays have been widely utilized to assess the antioxidant activities of natural components. Both assays are mostly connected with the proton radical scavenging or hydrogen donating capacities of the target compounds [29]. Superoxide radical scavenging activity is measured by the PMS/NADH–NBT system. Superoxide anion radicals generated from dissolved oxygen by PMS/NADH coupling reaction reduce NBT. The decrease in absorbance at 560 nm with antioxidants indicates a reduction in superoxide anion radicals in the reaction mixture. The ferric-reducing antioxidant power (FRAP) measures the antioxidant potential of each extract through the reduction of ferric iron (Fe^3+) complex to ferrous iron (Fe^2+) complex by antioxidants present in the samples [31].

[2] = ABTS radical scavenging assay
Description: ABTS radical scavenging activity of each extract was determined as previously described.
as §1

[3] = Ferric-reducing antioxidant power (FRAP) assay
Description: The FRAP assay was determined by the reference method with a slight modification. The working solution was mixed with acetate buffer (pH 3.6), ferric chloride solution (20 mM), and TPTZ solution (10 mM TPTZ in 40 mM HCl) in a proportion of 10:1:1, respectively, and freshly prepared before being used. A total of 900 μL of the working solution was warmed to 37 °C and then mixed with 100 μL of the diluted sample, blank or standard, in a microcentrifuge tube. The tubes were vortexed in a dry bath at 37 °C for 40 min. The absorbance was measured at 593 nm. The standard curve was linear between 0 and 100 mM Trolox. Results are expressed in mM TE/g dry weight. Additional dilution was needed if the FRAP value measured was over the linear range of the standard curve.
as §1

[4] = Superoxide radical scavenging assay (PMS/NADH-NBT system); conditions: isolated components
Description: Superoxide anion radical (O2^•–) scavenging activity was measured using the previously described method.
as §1

α-glucosidase = target: T1, α-glucosidase (Saccharomyces cerevisiae, UniProt P53341); test: α-Glucosidase inhibitory activity assay; type: biochemical
T1 construct: purchased Sigma-Aldrich
T1 sequence (P53341 whole entry): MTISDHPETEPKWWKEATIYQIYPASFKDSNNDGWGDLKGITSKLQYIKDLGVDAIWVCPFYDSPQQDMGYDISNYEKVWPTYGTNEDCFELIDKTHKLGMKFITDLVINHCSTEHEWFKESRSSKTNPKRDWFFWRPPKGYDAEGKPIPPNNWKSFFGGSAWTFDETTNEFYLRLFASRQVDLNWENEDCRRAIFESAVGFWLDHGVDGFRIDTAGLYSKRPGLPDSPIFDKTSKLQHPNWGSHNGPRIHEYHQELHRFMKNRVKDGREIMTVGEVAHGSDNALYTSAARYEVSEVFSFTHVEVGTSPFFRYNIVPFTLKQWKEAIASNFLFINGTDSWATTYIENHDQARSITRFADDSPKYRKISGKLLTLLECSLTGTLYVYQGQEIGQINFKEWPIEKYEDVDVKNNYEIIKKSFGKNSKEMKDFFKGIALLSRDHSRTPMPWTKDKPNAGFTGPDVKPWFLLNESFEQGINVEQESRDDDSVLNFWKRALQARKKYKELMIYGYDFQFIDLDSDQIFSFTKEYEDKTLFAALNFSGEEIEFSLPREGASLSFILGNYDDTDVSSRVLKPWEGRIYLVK
Description: The inhibition assay of α-glucosidase was conducted using the procedure previously reported.

[5] = target: T2, acetylcholinesterase (AChE) (Homo sapiens, UniProt P22303); test: biochemical; conditions: pure compounds; read-out: AchE Inhibitory Assay IC50 (converted)
T2 construct: purchased Sigma-Aldrich
T2 sequence (P22303 32-614): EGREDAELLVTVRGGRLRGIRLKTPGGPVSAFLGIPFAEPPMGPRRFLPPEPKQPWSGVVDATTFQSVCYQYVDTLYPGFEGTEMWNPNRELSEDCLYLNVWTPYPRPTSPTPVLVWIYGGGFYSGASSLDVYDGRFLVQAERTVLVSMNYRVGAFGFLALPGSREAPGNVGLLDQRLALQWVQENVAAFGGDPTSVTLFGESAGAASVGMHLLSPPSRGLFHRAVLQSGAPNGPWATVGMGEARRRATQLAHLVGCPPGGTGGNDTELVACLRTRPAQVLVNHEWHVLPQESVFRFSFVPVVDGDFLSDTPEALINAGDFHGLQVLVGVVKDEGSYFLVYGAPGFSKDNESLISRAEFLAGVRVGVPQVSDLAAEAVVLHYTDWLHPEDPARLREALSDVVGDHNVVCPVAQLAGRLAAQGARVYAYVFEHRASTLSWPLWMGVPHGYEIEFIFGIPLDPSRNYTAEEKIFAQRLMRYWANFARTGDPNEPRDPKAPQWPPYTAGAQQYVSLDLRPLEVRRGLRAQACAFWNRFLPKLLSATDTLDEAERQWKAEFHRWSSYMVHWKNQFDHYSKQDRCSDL
Description: The inhibition assay of acetylcholinesterase was conducted using the conditions previously reported with slight modifications. Briefly, 0.1 M sodium phosphate buffer (pH 8.0, 140 μL), test compound solution (20 μL), enzyme solution (15 μL of AChE 0.2 units/mL solution), and DTNB (15 mM, 10 μL) were mixed and incubated for 10 min at room temperature. Substrate (10 μL of AchI 15 mM solution) was then added and the reaction was initiated.

[6] = solvent extracts of AA (non-salt-fried) series
[7] = solvent extracts of salt-fried AA series
[8] = Trolox equivalents per gram, isolated components
[9] = pure compounds, read-out: α-Glucosidase IC50 (converted)

Structure (SMILES) | DPPH IC50 ([1]; isolated components) [µg/mL] | DPPH IC50 [1, 6] [µg/mL] | DPPH IC50 [1, 7] [µg/mL] | ABTS IC50 ([2]; isolated components) [µg/mL] | ABTS IC50 [2, 6] [µg/mL] | ABTS IC50 [2, 7] [µg/mL] | FRAP (TE) ([3]; Trolox equivalents per gram of extract, AA (non-salt-fried) series) [mM/g] | FRAP (TE) ([3]; Trolox equivalents per gram of extract, salt-fried AA series) [mM/g] | FRAP (TE) [3, 8] [mM/g] | Superoxide IC50 [4] [µg/mL] | IC50 (α-glucosidase) [µM] | IC50 [5] [µM] | potency against α-glucosidase relative to acarbose (α-glucosidase; fold stronger than acarbose) | IC50 (α-glucosidase; [9]) [µM]
Cc1cc(C(C)(C)C)c(O)c(C(C)(C)C)c1 [BHT, Butylated hydroxytoluene, reference compound] | 27.2 ± 1.9 | 35.5 ± 0.6 | 39.7 ± 1.4 | 15.4 ± 0.9 | 20.6 ± 0.2 | 19.6 ± 0.4 | 4297.0 ± 48.4 | 4216.1 ± 66.5 | 3963.9 ± 104.0 |  |  |  |  | 
O=c1c2cc(O)c(O)cc2oc2c([C@@H]3O[C@H](CO)[C@@H](O)[C@H](O)[C@H]3O)c(O)cc(O)c12 [Isomangiferin, isomangiferin] | 16.7 ± 1.1 |  |  | 5.6 ± 0.4 |  |  |  |  | 6359.9 ± 176.8 | 155.3 ± 13.8 | 434 | 227 |  | 
O=c1c2cc(O)c(O)cc2oc2cc(O)c([C@@H]3O[C@H](CO)[C@@H](O)[C@H](O)[C@H]3O)c(O)c12 [Mangiferin, mangiferin] | 5.4 ± 0.3 |  |  | 3.7 ± 0.2 |  |  |  |  | 9371.4 ± 183.9 | 53.8 ± 2.4 |  | 161 | about five-fold | 146
O=c1c2cc(O[C@@H]3O[C@H](CO)[C@@H](O)[C@H](O)[C@H]3O)c(O)cc2oc2cc(O)c([C@@H]3O[C@H](CO)[C@@H](O)[C@H](O)[C@H]3O)c(O)c12 [Neomangiferin, neomangiferin] | >200 |  |  | 81.9 ± 4.6 |  |  |  |  | 83.1 ± 5.3 | >200 | > 684 | 121 |  | 
C[C@H]1CC[C@@]2(OC1)O[C@H]1C[C@H]3[C@@H]4CC[C@@H]5C[C@@H](O[C@@H]6O[C@H](CO)[C@H](O)[C@H](O)[C@H]6O[C@@H]6O[C@H](CO)[C@@H](O)[C@H](O)[C@H]6O)CC[C@]5(C)[C@H]4CC[C@]3(C)[C@H]1[C@@H]2C [Timosaponin A-III, timosaponin A-III] | >200 |  |  | >200 |  |  |  |  | 19.5 ± 3.9 | >200 |  | 179 |  | 97.9
